According to patent US4479941A, “Renin inhibitory peptides having PHE^13 delection” (Merck & Co., Inc., priority 1982, dated 1984):
Square brackets hold non-standard residues; d marks the D form. Peptide text beside a SMILES is read from it. * marks the point of attachment. Sta = CC(C)C[C@H](N)[C@@H](O)CC(=O)O; X2 = c1ccc(CC(N*)c2ccccc2)cc1; NH(CH2)3Ph = c1ccc(CCCN*)cc1; NHPhenethyl = c1ccc(CCN*)cc1; X5 = c1ccc(CN2CCC(N*)CC2)cc1; Isobutyryl = CC(C)C(=O)*; Boc = CC(C)(C)OC(=O)*; NHBn = c1ccc(CN*)cc1; X3 = OCCN(CCO)CCCN*

Target: T1, human kidney renin (Homo sapiens, UniProt P00797)
T1 construct: human kidney renin purified as described in Bangham; from tissue; host or cells: human kidney
T1 sequence (P00797 67-406): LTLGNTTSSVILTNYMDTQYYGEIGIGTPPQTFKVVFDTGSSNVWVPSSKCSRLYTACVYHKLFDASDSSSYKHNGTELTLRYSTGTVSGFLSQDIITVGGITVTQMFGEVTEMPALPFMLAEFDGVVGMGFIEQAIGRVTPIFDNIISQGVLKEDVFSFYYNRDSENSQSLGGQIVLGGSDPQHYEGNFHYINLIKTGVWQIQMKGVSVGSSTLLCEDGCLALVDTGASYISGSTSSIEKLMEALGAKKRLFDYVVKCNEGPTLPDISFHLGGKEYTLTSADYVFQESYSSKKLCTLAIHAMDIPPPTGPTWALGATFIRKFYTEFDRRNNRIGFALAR
Test: Human renin inhibition
Format: biochemical
Details: purified human kidney renin; read-out: KI (dissociation constant of the inhibited enzyme-inhibitor complex)
Experimental: An assay was carried out in order to determine the inhibitory potency of the peptides of the present invention. The assay measured the inhibition of human kidney renin purified as described in Bangham, D. R., Robertson, I., Robinson, J. I. S., Robinson, C. J., and Tree, M., Clinical Science and Molecular Medicine, 48 (Supp. 2): 136s-159s (1975), and further purified by affinity chromatography on pepstatin-aminohexyl-Sepharase as described in Poe, M., Wu., J. K., Florance, J. R., Radkey, J. A., Bennett, C. D., and Hoagsteen, K., J. Biol. Chem. (1982, in press). The assay was also in accordance with Poe et al. cited above. Results are expressed as KI values, which refer to the dissociation constant of the inhibited enzyme-inhibitor complex. This KI value was obtained as described above.

Ki | Compound
0.06 nM | CC(C)C[C@H](NC(=O)C[C@H](O)[C@H](CC(C)C)NC(=O)[C@H](Cc1c[nH]cn1)NC(=O)[C@H](Cc1ccccc1)NC(=O)OC(C)(C)C)C(=O)NC1CCN(Cc2ccccc2)CC1 [BOC--Phe-His-Sta-Leu-(4-amido-1-benzylpiperidine)] (Boc-FH[Sta]L-X5)
12 nM | CC(C)C[C@H](NC(=O)C[C@H](O)[C@H](CC(C)C)NC(=O)[C@H](Cc1c[nH]cn1)NC(=O)[C@H](Cc1ccccc1)NC(=O)[C@@H]1CCCN1C(=O)[C@H](Cc1c[nH]cn1)NC(=O)C(C)C)C(=O)NCc1ccccc1 [N-Isobutyryl-L-histidyl-L-prolyl-L-phenylalanyl-L-histidyl-(3S,4S)-statyl-L-leucyl-benzylamide] (Isobutyryl-HPFH[Sta]L-NHBn)
52 nM | CC(C)C[C@H](NC(=O)C[C@H](O)[C@H](CC(C)C)NC(=O)[C@H](Cc1c[nH]cn1)NC(=O)[C@H](Cc1ccccc1)NC(=O)OC(C)(C)C)C(=O)NCCCN(CCO)CCO [BOC--Phe-His-Sta-Leu-[N-(3-amidopropyl)diethanolamine]] (Boc-FH[Sta]L-X3)

System: hog renin
Test: not given
Details: after injection of hog renin into nephrectomized rats (Gross et al. 1971); cited from earlier work

Compound | reduction of blood pressure in vivo
pepstatin | reduce blood pressure in vivo

System: aspartyl proteases such as pepsin, cathepsin D, and renin
Test: not given
Details: other acid proteases; cited from earlier work

Compound | inhibition of aspartyl proteases (selectivity)
pepstatin | inhibition of a variety of other acid proteases in addition to renin

Target: hog kidney renin (Sus scrofa, UniProt A0A287APG1)
Test: Hog renin inhibition
Format: biochemical
Details: pH 7.3, read-out: I50 (concentration of peptide inhibitor necessary to produce 50% inhibition of renin activity)
Experimental: An assay was carried out in order to determine the inhibitory potency of the peptides of the present invention.

hog kidney renin, sequence (A0A287APG1 67-407): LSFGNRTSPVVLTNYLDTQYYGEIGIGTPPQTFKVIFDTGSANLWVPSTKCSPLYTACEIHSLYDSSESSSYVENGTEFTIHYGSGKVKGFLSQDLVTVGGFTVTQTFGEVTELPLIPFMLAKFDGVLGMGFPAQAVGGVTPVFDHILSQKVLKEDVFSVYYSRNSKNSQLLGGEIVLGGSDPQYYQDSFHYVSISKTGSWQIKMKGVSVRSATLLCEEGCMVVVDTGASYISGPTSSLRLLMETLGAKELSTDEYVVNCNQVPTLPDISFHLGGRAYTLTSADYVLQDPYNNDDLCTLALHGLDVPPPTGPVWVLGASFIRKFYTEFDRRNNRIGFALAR

IC50 | Compound
1.4 nM | CC(C)C[C@H](NC(=O)C[C@H](O)[C@H](Cc1ccccc1)NC(=O)[C@H](Cc1c[nH]cn1)NC(=O)[C@H](Cc1ccccc1)NC(=O)OC(C)(C)C)C(=O)NCc1ccccc1 [BOC--Phe--His--AHPPA--Leu--benzylamide, BOC--Phe-His-AHPPA^4 -Lleu-benzylamide]
36 nM | CC(C)C[C@H](NC(=O)C[C@H](O)[C@H](CC(C)C)NC(=O)[C@H](Cc1c[nH]cn1)NC(=O)[C@H](Cc1ccccc1)NC(=O)OC(C)(C)C)C(=O)N[C@@H](CC(C)C)[C@@H](O)CC(=O)O [BOC--Phe--His--Sta--Leu--Sta, BOC--Phe-His-Sta-Leu-Sta] (Boc-FH[Sta]L[Sta]-OH)
30 nM | CC(C)C[C@H](NC(=O)C[C@H](O)[C@H](CC(C)C)NC(=O)[C@H](Cc1c[nH]cn1)NC(=O)[C@H](Cc1ccccc1)NC(=O)[C@@H]1CCCN1C(=O)[C@H](Cc1c[nH]cn1)NC(=O)C(C)C)C(=O)NCCc1ccccc1 [IBU--His-Pro-Phe-His-Sta-Leu-2-phenylethylamide] (Isobutyryl-HPFH[Sta]L-NHPhenethyl)
3.4 nM | CC(=O)N[C@@H](Cc1ccccc1)C(=O)N[C@@H](Cc1c[nH]cn1)C(=O)N[C@@H](Cc1ccccc1)[C@@H](O)CC(=O)N[C@@H](CC(C)C)C(=O)NCc1ccccc1 [Acetyl--Phe-His-AHPPA-Leu-benzylamide]
11 nM | CC(C)C[C@H](NC(=O)C[C@H](O)[C@H](CC(C)C)NC(=O)[C@H](Cc1c[nH]cn1)NC(=O)[C@H](Cc1ccccc1)NC(=O)OC(C)(C)C)C(=O)NCc1ccccc1 [BOC--Phe--His--Sta--Leu--benzylamide, BOC--Phe-His-Sta-Leu-benzylamide] (Boc-FH[Sta]L-NHBn)
5.6 nM | CC(C)C[C@H](NC(=O)C[C@H](O)[C@H](CC(C)C)NC(=O)[C@H](Cc1c[nH]cn1)NC(=O)[C@H](Cc1ccccc1)NC(=O)[C@@H]1CCCN1C(=O)[C@H](Cc1c[nH]cn1)NC(=O)C(C)C)C(=O)NC(Cc1ccccc1)c1ccccc1 (stereo partly drawn) [IBU--His-Pro-Phe-His-Sta-Leu-1,2-diphenylethylamide] (Isobutyryl-HPFH[Sta]L-X2)
11 nM | CC(C)C[C@H](NC(=O)C[C@H](O)[C@H](CC(C)C)NC(=O)[C@H](Cc1c[nH]cn1)NC(=O)[C@H](Cc1ccccc1)NC(=O)OC(C)(C)C)C(=O)NC(C)c1cccc2ccccc12 (single isomer, unassigned) [BOC--Phe-His-Sta-Leu-(+)-α-naphthylethylamide]
19 nM | CC(C)C[C@H](NC(=O)C[C@H](O)[C@H](CC(C)C)NC(=O)[C@H](Cc1c[nH]cn1)NC(=O)[C@H](Cc1ccccc1)NC(=O)[C@@H]1CCCN1C(=O)[C@H](Cc1c[nH]cn1)NC(=O)C(C)C)C(=O)NCCCc1ccccc1 [IBU--His-Pro-Phe-His-Sta-Leu-3-phenylpropylamide] (Isobutyryl-HPFH[Sta]L-{NH(CH2)3Ph})
13 nM | CC(C)C[C@H](NC(=O)C[C@H](O)[C@H](CC(C)C)NC(=O)[C@H](Cc1c[nH]cn1)NC(=O)[C@H](Cc1ccccc1)NC(=O)[C@@H]1CCCN1C(=O)[C@H](Cc1c[nH]cn1)NC(=O)C(C)C)C(=O)NCc1ccccc1 [N-Isobutyryl-L-histidyl-L-prolyl-L-phenylalanyl-L-histidyl-(3S,4S)-statyl-L-leucyl-benzylamide] (Isobutyryl-HPFH[Sta]L-NHBn)
